In ChEMBL document CHEMBL6087420, “Synthesis and pharmacodynamic evaluation of 2-aminoindole derivatives against influenza A virus in vitro/vivo” (Eur J Med Chem, 2025):
The source made the active and inactive calls. No cut-off for these calls is given here.

Columns and labels:
[1] = Cytotoxicity against dog MDCK cells after 72 hrs incubation by MTT assay; format: toxicity, cell-based, Canis lupus familiaris
[2] = Selectivity index, ratio of CC50 for dog MDCK cells to EC50 for antiviral activity against Influenza A virus H1N1 (A/Weiss/43) infected in MDCK cells; format: toxicity, cell-based; conditions: read-out: Ratio CC50/EC50
[3] = Selectivity index, ratio of CC50 for dog MDCK cells to EC50 for antiviral activity against Influenza A virus H1NI (A/Virginia/ATCC2/2009) infected in MDCK cells; format: toxicity, cell-based; conditions: read-out: Selectivity Index
[4] = tested on: Influenza A virus; assay: Antiviral activity against influenza A virus H1NI (A/Weiss/43) infected in MDCK cells assessed as reduction in IAV-NP mRNA by qRT-PCR assay; format: functional, organism-based
[5] = tested on: Influenza A virus; assay: Antiviral activity against influenza A virus H1NI (A/Weiss/43) virus infected in dog MDCK cells assessed as viral inhibition treated after 2 hrs of viral infection measured at 72 hrs incubation by MTT assay; format: functional
[6] = tested on: Influenza A virus; assay: Inhibition of influenza A virus infection induced apoptosis in MDCK cells infected with influenza virus assessed as viable cells at 25 uM incubated for 36 hrs by AnnexinV-FITC/PI staining based flow cytometry (reference value: 66.9%); format: functional
[7] = tested on: Influenza A virus; assay: Inhibition of influenza A virus infection induced apoptosis in MDCK cells infected with influenza virus assessed as early apoptotic cells at 25 uM incubated for 36 hrs by AnnexinV-FITC/PI staining based flow cytometry (reference value: 18.2%); format: functional; set-up: scale not given: the % may be the effect or the level left
[8] = tested on: Influenza A virus; assay: Inhibition of influenza A virus infection induced apoptosis in MDCK cells infected with influenza virus assessed as early apoptotic cells at 50 uM incubated for 36 hrs by AnnexinV-FITC/PI staining based flow cytometry (reference value: 18.2%); format: functional; set-up: scale not given: the % may be the effect or the level left
[9] = tested on: Influenza A virus; assay: Inhibition of influenza A virus infection induced apoptosis in MDCK cells infected with influenza virus assessed as late apoptotic cells at 50 uM incubated for 36 hrs by AnnexinV-FITC/PI staining based flow cytometry (reference value: 13.2%); format: functional; set-up: scale not given: the % may be the effect or the level left
[10] = tested on: Influenza A virus; assay: Inhibition of influenza A virus infection induced apoptosis in MDCK cells infected with influenza virus assessed as late apoptotic cells at 100 uM incubated for 36 hrs by AnnexinV-FITC/PI staining based flow cytometry (reference value: 13.2%); format: functional; set-up: scale not given: the % may be the effect or the level left
[11] = tested on: Influenza A virus; assay: Inhibition of influenza A virus infection induced apoptosis in MDCK cells infected with influenza virus assessed as necrotic cells at 100 uM incubated for 36 hrs by AnnexinV-FITC/PI staining based flow cytometry (reference value: 1.79%); format: functional; set-up: scale not given: the % may be the effect or the level left
[12] = tested on: Influenza A virus; assay: Antiviral activity against influenza A virus infected in human A549 cells assessed as inhibition of MAVS expression by qRT-PCR analysis; format: functional, organism-based
[13] = tested on: Influenza A virus; assay: Antiviral activity against influenza A virus infected in A549 cells assessed as decrease in IAV-NP expression at 25 to 100 uM cells pretreated for 48 hrs followed by infected with virus by green fluorescent labelling based confocal microscopy; format: functional, organism-based; conditions: dose 25-100 µM
[14] = tested on: Influenza A virus; assay: Antiviral activity against influenza A virus infected in human A549 cells assessed as inhibition of IL-6 expression by qRT-PCR analysis; format: functional, organism-based
[15] = tested on: Influenza A virus; assay: Antiviral activity against influenza A virus infected in human A549 cells assessed as inhibition of NF-kappaB protein expression at 25 to 100 uM by Western blot analysis; format: functional, organism-based; conditions: dose 25-100 µM
[16] = tested on: Influenza A virus; assay: Antiviral activity against influenza A virus H1NI (A/Weiss/43) infected in compound pretreated MDCK cells assessed as reduction in viral absorption; format: functional, organism-based
[17] = tested on: Influenza A virus; assay: Inhibition of Hemagglutinin in Influenza A virus
[18] = tested on: Influenza A virus; assay: Antiviral activity against influenza A virus infected in A549 cells assessed as decrease in IAV-M2 expression at 25 to 100 uM cells pretreated for 48 hrs followed by infected with virus by green fluorescent labelling based confocal microscopy; format: functional, organism-based; conditions: dose 25-100 µM
[19] = tested on: Influenza A virus; assay: Antiviral activity against influenza A virus infected in A549 cells assessed as decrease in IAV-M2 expression pretreated for 48 hrs followed by infected with virus by Western blotting analysis; format: functional, organism-based; conditions: dose 25-100 µM
[20] = tested on: Influenza A virus; assay: Antiviral activity against influenza A virus H1N1 infected in MDCK cells assessed as decrease in virus infection-induced cytopathic effect; format: functional, organism-based
[21] = tested on: Influenza A virus; assay: Inhibition of influenza A virus infection induced apoptosis in MDCK cells infected with influenza virus assessed as decrease in cleaved caspase 9 incubated for 36 hrs by Western blot analysis; format: functional, organism-based
[22] = tested on: Influenza A virus; assay: Inhibition of influenza A virus infection induced apoptosis in MDCK cells infected with influenza virus assessed as decrease in Bax incubated for 36 hrs by Western blot analysis; format: functional, organism-based
[23] = tested on: Influenza A virus; assay: In vivo antiviral activity against influenza A virus infected in BALB/c mouse assessed as decrease in symptoms at 25 to 100 mg/kg; format: functional, organism-based; conditions: dose 25-100 mg/kg
[24] = tested on: Influenza A virus; assay: In vivo antiviral activity against influenza A virus infected in BALB/c mouse assessed as reduction in IAV-NP mRNA level in lung at 25 to 100 mg/kg measured after 6 dpi; format: functional, organism-based; conditions: dose 25-100 mg/kg
[25] = tested on: Influenza A virus; assay: In vivo antiviral activity against influenza A virus infected in BALB/c mouse assessed as reduction in IAV-M2 mRNA level in lung at 25 to 100 mg/kg measured after 6 dpi; format: functional, organism-based; conditions: dose 25-100 mg/kg
[26] = tested on: Influenza A virus; assay: In vivo antiviral activity against influenza A virus infected in BALB/c mouse assessed as reduction in TNF-alpha mRNA level in lung at 25 to 100 mg/kg measured after 6 dpi; format: functional, organism-based; conditions: dose 25-100 mg/kg
[27] = tested on: Influenza A virus; assay: In vivo antiviral activity against influenza A virus infected in BALB/c mouse assessed as reduction in iNOS mRNA level in lung at 25 to 100 mg/kg measured after 6 dpi; format: functional, organism-based; conditions: dose 25-100 mg/kg
[28] = tested on: Influenza A virus; assay: In vivo antiviral activity against influenza A virus infected in BALB/c mouse assessed as reduction in IRF3 mRNA level in lung at 25 to 100 mg/kg measured after 6 dpi; format: functional, organism-based; conditions: dose 25-100 mg/kg
[29] = tested on: Influenza A virus; assay: In vivo antiviral activity against influenza A virus infected in BALB/c mouse assessed as reduction in Caspase-1 mRNA level in lung at 25 to 100 mg/kg measured after 6 dpi; format: functional, organism-based; conditions: dose 25-100 mg/kg
[30] = tested on: Influenza A virus; assay: In vivo antiviral activity against influenza A virus infected in BALB/c mouse assessed as reduction in ASC mRNA level in lung at 25 to 100 mg/kg measured after 6 dpi; format: functional, organism-based; conditions: dose 25-100 mg/kg
[31] = tested on: Influenza A virus; assay: In vivo antiviral activity against influenza A virus infected in BALB/c mouse assessed as reduction in apoptotic cells at 25 to 100 mg/kg measured after 6 dpi by TUNEL assay; format: functional, organism-based; conditions: dose 25-100 mg/kg
[32] = Toxicity in healthy BALB/c mouse assessed as pathological change in lungs at 25 to 100 mg/kg administered through gavage for 6 days; format: organism-based; conditions: in vivo, po, 144 h, dose 25-100 mg/kg, time 6 day
[33] = Toxicity in healthy BALB/c mouse assessed as pathological change in kidney at 25 to 100 mg/kg administered through gavage for 6 days; format: organism-based; conditions: in vivo, po, 144 h, dose 25-100 mg/kg, time 6 day
[34] = Toxicity in healthy BALB/c mouse assessed as pathological change in colon at 25 to 100 mg/kg administered through gavage for 6 days; format: organism-based; conditions: in vivo, po, 144 h, dose 25-100 mg/kg, time 6 day
[35] = Toxicity in healthy BALB/c mouse assessed as change in blood indicators at 25 to 100 mg/kg administered through gavage for 6 days; format: organism-based; conditions: in vivo, po, 144 h, dose 25-100 mg/kg, time 6 day

SMILES: COc1ccc2c(c1)c(-c1ccccc1)c(NS(C)(=O)=O)n2S(=O)(=O)c1ccc(C)cc1
- CC50 at 72 h [1]: 669 µM
- selectivity ratio [2]: 80
- selectivity ratio [3]: 51.9
- Activity [4]: Active
- inhibition (INH) [5]: 87.37%
- Activity [6]: 71.9%
- Activity [7]: 17.6%
- Activity [8]: 9.21%
- Activity [9]: 4.07%
- Activity [10]: 1.62%
- Activity [11]: 1.74%
- Activity [12]: Active
- Activity [13]: Active
- Activity [14]: Active
- Activity [15]: Active
- Activity [16]: inactive
- inhibition [17]: inactive
- Activity [18]: Active
- Activity [19]: Dose-dependent-effect
- Activity [20]: Active
- Activity [21]: Dose-dependent-effect
- Activity [22]: Active
- Activity [23]: Active; Alleviate Following Symptoms - Symptoms Of Severe Malaise, Respiratory Distress, Asthma, Messy Coat, Hunched Back, And Loss Of Appetite To Certain Extent
- Activity [24]: Active
- Activity [25]: Active
- Activity [26]: Active
- Activity [27]: Active
- Activity [28]: Active
- Activity [29]: Active
- Activity [30]: Active
- Activity [31]: Active
- Activity [32]: Non-toxic
- Activity [33]: Non-toxic
- Activity [34]: Non-toxic
- Activity [35]: Non-toxic
